Data taken from ChEMBL document CHEMBL4184333, “Expanding Benzoxazole-Based Inosine 5'-Monophosphate Dehydrogenase (IMPDH) Inhibitor Structure-Activity As Potential Antituberculosis Agents” (J Med Chem, 2018).
Converted amounts (≈) assume the structure as drawn. The source made the active and inactive calls. No cut-off for these calls is given here.

Columns and labels:
[1] = test system: Mycobacterium tuberculosis; assay: Antitubercular activity against Mycobacterium tuberculosis H37Rv ATCC 27294 using GAST/Fe medium after 1 week in presence of guanine by broth microdilution method; assay type: functional; conditions: H37Rv ATCC 27294, 168 h
[2] = Half life in mouse liver microsomes in absence of NADPH; assay type: ADME, microsome
[3] = test system: Mycobacterium tuberculosis; assay: Antitubercular activity against Mycobacterium tuberculosis H37Rv ATCC 27294 using GAST/Fe medium after 1 week in absence of guanine by broth microdilution method; assay type: functional; conditions: H37Rv ATCC 27294, 168 h
[4] = test system: Mycobacterium tuberculosis; assay: Antitubercular activity against Mycobacterium tuberculosis H37Rv ATCC 27294 using 7H9/ADC/Tween medium after 1 week in presence of guanine by broth microdilution method; assay type: functional; conditions: H37Rv ATCC 27294, 168 h
[5] = target: Inosine-5'-monophosphate dehydrogenase 2 (Homo sapiens, UniProt P12268); assay: Inhibition of human IMPDH2 using IMP as substrate by spectrophotometric method; conditions: read-out: Ki(app)
[6] = test system: Mycobacterium tuberculosis; assay: Antitubercular activity against Mycobacterium tuberculosis H37Rv ATCC 27294 using 7H9/ADC/Tween medium after 1 week in absence of guanine by broth microdilution method; assay type: functional; conditions: H37Rv ATCC 27294, 168 h
GMP reductase 2 = target: T1, GMP reductase 2 (Homo sapiens, UniProt Q9P2T1); assay: Inhibition of human GMPR2 using GMP as substrate by spectrophotometric method; conditions: read-out: Ki(app)
T1 sequence (Q9P2T1 whole entry): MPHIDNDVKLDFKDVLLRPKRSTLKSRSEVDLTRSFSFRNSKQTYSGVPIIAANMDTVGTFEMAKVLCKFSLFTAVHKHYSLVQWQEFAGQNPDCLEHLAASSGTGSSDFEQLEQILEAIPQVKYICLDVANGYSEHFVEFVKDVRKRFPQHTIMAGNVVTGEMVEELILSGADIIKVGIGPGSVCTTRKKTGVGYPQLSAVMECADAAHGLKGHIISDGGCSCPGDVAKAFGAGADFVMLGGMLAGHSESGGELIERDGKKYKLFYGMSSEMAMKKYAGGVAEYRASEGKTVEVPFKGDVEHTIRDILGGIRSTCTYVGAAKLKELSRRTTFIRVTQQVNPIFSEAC

[7] = test system: Mycobacterium tuberculosis; assay: Antitubercular activity against Mycobacterium tuberculosis H37Rv ATCC 27294 using GAST/Fe medium after 2 weeks in absence of guanine by broth microdilution method; assay type: functional, organism-based
[8] = (§1) Cytotoxicity against human HepG2 cells after 24 hrs by LDH release assay; assay type: cell-based; conditions: HepG2 cells, read-out: LD50
[9] = Cmax in mouse at 20 mg/kg, po; assay type: ADME, organism-based; design: dose 20 mg/kg, route oral; conditions: in vivo
[10] = Half life in mouse liver microsomes in presence of NADPH; assay type: ADME, microsome
MCF7 = assay: Cytotoxicity against human MCF7 cells assessed as LDH release at 25 uM after 24 hrs relative to control; assay type: cell-based; conditions: mcf7, 24 h
HepG2 [11] = assay: Cytotoxicity against human HepG2 cells assessed as LDH release at 25 uM after 24 hrs relative to control; assay type: cell-based; conditions: hepg2, 24 h
[12] = test system: Mycobacterium tuberculosis; assay: Antitubercular activity against Mycobacterium tuberculosis H37Rv ATCC 27294 using 7H9/ADC/Tween medium after 1 week in absence of guanine and presence of anhydrotetracycline by Alamar blue assay; assay type: functional; conditions: H37Rv ATCC 27294, 168 h
[13] = Elimination half life in mouse plasma at 20 mg/kg, po; assay type: ADME, organism-based; conditions: read-out: beta t1/2 (converted)
[14] = Tmax in mouse at 20 mg/kg, po; assay type: ADME, organism-based; conditions: in vivo
HEK-293T = assay: Cytotoxicity against human HEK293T cells assessed as LDH release at 25 uM after 24 hrs relative to control; assay type: cell-based
[15] = Protein binding in mouse serum at 20 mg/kg, po; assay type: ADME, organism-based; conditions: read-out: PB
[16] = Drug metabolism in mouse plasma after 2 hrs; assay type: ADME, cell-free
HeLa = assay: Cytotoxicity against human HeLa cells assessed as LDH release at 25 uM after 24 hrs relative to control; assay type: cell-based
[17] = test system: Mycobacterium tuberculosis; assay: Antitubercular activity against Mycobacterium tuberculosis H37Rv ATCC 27294 using 7H9/ADC/Tween medium after 2 weeks in absence of guanine by broth microdilution method; assay type: functional, organism-based
HepG2 [18] = assay: as §1; assay type: cell-based; conditions: hepg2, 24 h

SMILES	MIC [1]	t1/2 [2]	MIC [3]	MIC [4]	Ki [5]	MIC [6]	Ki (GMP reductase 2)	Activity [7]	Activity [17]	Activity (HepG2 [18])	other results
C[C@H](Oc1cccc(Cl)c1Cl)C(=O)Nc1ccc2oc(-c3ccc(OCC(=O)O)cc3)nc2c1	4 µM	23 min	2 µM (≈ 1 µg/mL)	20 µM	> 5 µM	9 µM (≈ 4.51 µg/mL)	> 5 µM	–	–	–	–
C[C@H](Nc1cccc(F)c1F)C(=O)Nc1ccc2oc(-c3ccc(C#N)cc3)nc2c1	6 µM	–	2 µM (≈ 0.837 µg/mL)	1.4 µM	> 5 µM	1 to 3.1 µM (≈ 0.418 to 1.3 µg/mL)	> 5 µM	Active	Active	–	CC50 at 24 h [8]: > 25 µM; Cmax [9]: 3000 nM; t1/2 [10]: 26 min; Activity (MCF7): < 10%; Activity (HepG2 [11]): 9 to 13%; MIC [12]: 3.1 µM; half-life [13]: 300 min; Tmax [14]: 30 min; Activity (HEK-293T): < 10%; fraction unbound [15]: < 0.01; Drug metabolism [16]: Metabolite_Notdetected; Activity (HeLa): < 10%
CCOC(=O)COc1ccc(-c2nc3cc(NC(=O)[C@H](C)Oc4cccc(Cl)c4Cl)ccc3o2)cc1	0.5 µM	1.3 min	0.4 µM (≈ 0.212 µg/mL)	0.23 µM	> 5 µM	0.2 to 3.1 µM (≈ 0.106 to 1.64 µg/mL)	> 5 µM	Active	Active	Non-Toxic	–
C#CCOC(=O)COc1ccc(-c2nc3cc(NC(=O)[C@H](C)Oc4cccc(Cl)c4Cl)ccc3o2)cc1	1.4 µM	–	0.4 µM (≈ 0.216 µg/mL)	0.4 µM	> 5 µM	0.2 µM (≈ 0.108 µg/mL)	> 5 µM	Active	Active	Non-Toxic	–
